According to patent US20230271950A1, “ANTIBACTERIAL PICOLINAMIDE COMPOUNDS” (University of Notre Dame Du Lac, priority 2020, published 2023):
Converted amounts (≈) assume the structure as drawn. Read-outs that look alike come from different tables or passages of the source.

Assays:
C. difficile = assay: MIC by broth microdilution against C. difficile strains; type: cell-based, Clostridioides difficile; details: for MIC: Clostridioides difficile; for MIC C. difficile: ATCC 43255, ribotype 087; for Selectivity: MIC MRSA/MIC C. difficile, Table 3
MRSA (NRS70, NRS119) = assay: MIC against MRSA strains; type: cell-based, Staphylococcus aureus; details: for MIC: Staphylococcus aureus
[1] = ATCC43255, ATCC 43255, ribotype 087, Table 2 (SAR^1), read-out: MIC C. difficile
[2] = NRS70 strain, Table 2 (SAR^1), read-out: MIC MRSA
[3] = ATCC43255, C. difficile ATCC 43255, read-out: MIC against C. difficile
[4] = MRSA strain NRS70, read-out: MIC against MRSA
[5] = ATCC43255, ATCC 43255, ribotype 087, Table 3 (SAR^2 and SAR^3), read-out: MIC C. difficile
[6] = NRS70 strain, Table 3 (SAR^2 and SAR^3), read-out: MIC MRSA
[7] = ATCC43255, C. difficile ATCC43255, FIG. 2 legend, read-out: MIC of positive controls

SMILES | MIC (C. difficile; [1]) | MIC (MRSA (NRS70, NRS119); [2]) | MIC (C. difficile; [5]) | MIC (MRSA (NRS70, NRS119); [6]) | Selectivity (C. difficile) | also measured
CCOC(=O)c1coc(NC(=O)c2ccnc(-c3ccc(Cl)c(Cl)c3)c2)n1 [Compound 15, Ethyl 2-(2-(3,4-dichlorophenyl)isonicotinamido)oxazole-4-carboxylate] | 0.125 µg/mL (≈ 0.308 µM) | 1 µg/mL (≈ 2.46 µM) | – | – | – | –
O=C(Nc1nccs1)c1ccnc(-c2ccc(Cl)c(Cl)c2)c1 [Compound 16, 2-(3,4-Dichlorophenyl)-N-(thiazol-2-yl)isonicotinamide] | ≥ 128 µg/mL | ≥ 256 µg/mL | – | – | – | MIC (C. difficile; [3]): ≥ 64 µg/mL; MIC (MRSA (NRS70, NRS119); [4]): ≥ 64 µg/mL
O=C(Nc1ccon1)c1ccnc(-c2ccc(Cl)c(Cl)c2)c1 [Compound 18, 2-(3,4-Dichlorophenyl)-N-(isoxazol-3-yl)isonicotinamide] | ≥ 128 µg/mL | ≥ 256 µg/mL | – | – | – | MIC (C. difficile; [3]): ≥ 64 µg/mL; MIC (MRSA (NRS70, NRS119); [4]): ≥ 64 µg/mL
Cc1nnc(NC(=O)c2ccnc(-c3ccc(Cl)c(Cl)c3)c2)o1 [Compound 19, 2-(3,4-Dichlorophenyl)-N-(5-methyl-1,3,4-oxadiazol-2-yl)isonicotinamide] | 64 µg/mL (≈ 183 µM) | ≥ 256 µg/mL | – | – | – | MIC (C. difficile; [3]): ≥ 64 µg/mL; MIC (MRSA (NRS70, NRS119); [4]): ≥ 64 µg/mL
CNC(=O)c1ccnc(-c2ccc(Cl)c(Cl)c2)c1 [Compound 20, 2-(3,4-Dichlorophenyl)-N-methylisonicotinamide] | 64 µg/mL (≈ 228 µM) | ≥ 256 µg/mL | – | – | – | MIC (C. difficile; [3]): ≥ 64 µg/mL; MIC (MRSA (NRS70, NRS119); [4]): ≥ 64 µg/mL
O=C(Nc1nc2ncccc2o1)c1ccnc(-c2ccc(Cl)c(Cl)c2)c1 [Compound 22, 2-(3,4-Dichlorophenyl)-N-(oxazolo[4,5-b]pyridin-2-yl)isonicotinamide] | 0.0625 µg/mL (≈ 0.162 µM) | 0.25 µg/mL (≈ 0.649 µM) | – | – | – | –
CCOC(=O)c1cnc(NC(=O)c2ccnc(-c3ccc(Cl)c(Cl)c3)c2)o1 [Compound 23, Ethyl 2-(2-(3,4-dichlorophenyl)isonicotinamido)oxazole-5-carboxylate] | 0.0625 µg/mL (≈ 0.154 µM) | 0.06 µg/mL (≈ 0.148 µM) | – | – | – | –
O=C(Nc1ncc(C(=O)O)o1)c1ccnc(-c2ccc(Cl)c(Cl)c2)c1 [Compound 24, 2-(2-(3,4-Dichlorophenyl)isonicotinamido)oxazole-5-carboxylic acid] | 128 µg/mL (≈ 338 µM) | 64 µg/mL (≈ 169 µM) | – | – | – | –
C#CCCCCCOC(=O)c1cnc(NC(=O)c2ccnc(-c3ccc(Cl)c(Cl)c3)c2)o1 [Compound 25, Hept-6-yn-1-yl 2-(2-(3,4-dichlorophenyl)isonicotinamido)oxazole-5-carboxylate] | 0.25 µg/mL (≈ 0.529 µM) | 0.06 µg/mL (≈ 0.127 µM) | – | – | – | –
CC(C)(C)OC(=O)NCCCCCCOC(=O)c1cnc(NC(=O)c2ccnc(-c3ccc(Cl)c(Cl)c3)c2)o1 [Compound 27, 6-((Tert-butoxycarbonyl)amino)hexyl 2-(2-(3,4-dichlorophenyl)isonicotinamido) oxazole-5-carboxylate] | – | – | – | – | – | MIC C. difficile (C. difficile; Table 2 (SAR^1)): 8 µg/mL (≈ 13.9 µM); MIC MRSA (MRSA (NRS70, NRS119); NRS70 strain, Table 2 (SAR^1)): 16 µg/mL (≈ 27.7 µM)
O=C(Nc1ncc(C(=O)N2CCOCC2)o1)c1ccnc(-c2ccc(Cl)c(Cl)c2)c1 [Compound 29, 2-(3,4-Dichlorophenyl)-N-(5-(morpholine-4-carbonyl)oxazol-2-yl)isonicotinamide] | 0.125 µg/mL (≈ 0.279 µM) | 2 µg/mL (≈ 4.47 µM) | – | – | – | –
CC(C)(C)OC(=O)N1CCN(C(=O)c2cnc(NC(=O)c3ccnc(-c4ccc(Cl)c(Cl)c4)c3)o2)CC1 [Compound 30, Tert-butyl 4-(2-(2-(3,4-Dichlorophenyl)isonicotinamido)oxazole-5-carbonyl) piperazine-1-carboxylate] | – | – | – | – | – | MIC C. difficile (C. difficile; Table 2 (SAR^1)): 0.25 µg/mL (≈ 0.458 µM); MIC MRSA (MRSA (NRS70, NRS119); NRS70 strain, Table 2 (SAR^1)): 2 µg/mL (≈ 3.66 µM)
Cl.Cl.O=C(Nc1ncc(C(=O)N2CCNCC2)o1)c1ccnc(-c2ccc(Cl)c(Cl)c2)c1 [Compound 31, 2-(3,4-Dichlorophenyl)-N-(5-(piperazine-1-carbonyl)oxazol-2-yl)isonicotinamide dihydrochloride] | 8 µg/mL | 16 µg/mL | – | – | – | –
O=C(Nc1ncco1)c1ccnc(-c2ccccc2Cl)c1 [Compound 34, 2-(2-Chlorophenyl)-N-(oxazol-2-yl)isonicotinamide] | – | – | 4 µg/mL (≈ 13.3 µM) | 8 µg/mL (≈ 26.7 µM) | 2 | –
O=C(Nc1ncco1)c1ccnc(-c2ccccc2F)c1 [Compound 38, 2-(2-Fluorophenyl)-N-(oxazol-2-yl)isonicotinamide] | – | – | 4 µg/mL (≈ 14.1 µM) | 1 µg/mL (≈ 3.53 µM) | 0.25 | –
O=C(Nc1ncco1)c1ccnc(-c2ccc(OCc3ccccc3)cc2)c1 [Compound 56, 2-(4-(Benzyloxy)phenyl)-N-(oxazol-2-yl)isonicotinamide] | – | – | 4 µg/mL (≈ 10.8 µM) | 8 µg/mL (≈ 21.5 µM) | 2 | –
O=C(Nc1ncco1)c1ccnc(-c2cccc(OCc3ccccc3)c2)c1 [Compound 57, 2-(3-(Benzyloxy)phenyl)-N-(oxazol-2-yl)isonicotinamide] | – | – | 0.5 µg/mL (≈ 1.35 µM) | 1 µg/mL (≈ 2.69 µM) | 2 | –
O=C(Nc1ncco1)c1ccnc(N2CCOCC2)c1 [Compound 62, 2-Morpholino-N-(oxazol-2-yl)isonicotinamide] | – | – | 128 µg/mL (≈ 467 µM) | 128 µg/mL (≈ 467 µM) | 1 | –
O=C(Nc1ncco1)c1ccnc(C(F)(F)F)c1 [Compound 63, N-(Oxazol-2-yl)-2-(trifluoromethyl)isonicotinamide] | – | – | 4 µg/mL (≈ 15.6 µM) | 16 µg/mL (≈ 62.2 µM) | 4 | –
O=C(Nc1ncco1)c1ccnc(-c2ccc(F)c(Cl)c2)c1F [Compound 67, 2-(3-Chloro-4-fluorophenyl)-3-fluoro-N-(oxazol-2-yl)isonicotinamide] | – | – | 1 µg/mL (≈ 2.98 µM) | 1 µg/mL (≈ 2.98 µM) | 1 | –
CC(=O)NC[C@H]1CN(c2ccc(N3CCOCC3)c(F)c2)C(=O)O1 [linezolid, reference compound] | – | – | – | – | – | MIC (C. difficile; [7]): 2 µg/mL
CO[C@H]1/C=C/O[C@@]2(C)Oc3c(C)c(O)c4c(O)c(c5c(nc6cc(C)ccn65)c4c3C2=O)NC(=O)/C(C)=C\C=C\[C@H](C)[C@H](O)[C@@H](C)[C@@H](O)[C@@H](C)[C@H](OC(C)=O)[C@@H]1C [rifaximin, reference compound] | – | – | – | – | – | MIC (C. difficile; [7]): 0.03 µg/mL

The next lines start with results.

MIC (C. difficile; [1]) | MIC (MRSA (NRS70, NRS119); [2]) | MIC (C. difficile; [5]) | MIC (MRSA (NRS70, NRS119); [6]) | SMILES | Selectivity (C. difficile) | also measured
≥ 128 µg/mL | ≥ 256 µg/mL | – | – | O=C(Nc1ncc[nH]1)c1ccnc(-c2ccc(Cl)c(Cl)c2)c1 [Compound 17, 2-(3,4-Dichlorophenyl)-N-(1H-imidazol-2-yl)isonicotinamide] | – | MIC (C. difficile; [3]): ≥ 64 µg/mL; MIC (MRSA (NRS70, NRS119); [4]): ≥ 64 µg/mL
0.25 µg/mL (≈ 0.523 µM) | 0.25 µg/mL (≈ 0.523 µM) | – | – | O=C(Nc1ncc(C(=O)OCCCCCCO)o1)c1ccnc(-c2ccc(Cl)c(Cl)c2)c1 [Compound 26, 6-Hydroxyhexyl 2-(2-(3,4-dichlorophenyl)isonicotinamido)oxazole-5-carboxylate] | – | –
– | – | 0.5 µg/mL (≈ 1.66 µM) | 8 µg/mL (≈ 26.6 µM) | O=C(Nc1ncco1)c1ccnc(-c2cc(F)cc(F)c2)c1 [Compound 42, 2-(3,5-Difluorophenyl)-N-(oxazol-2-yl)isonicotinamide] | 16 | –
– | – | 1 µg/mL (≈ 3.22 µM) | 64 µg/mL (≈ 206 µM) | O=C(Nc1ncco1)c1ccnc(-c2ccc([N+](=O)[O-])cc2)c1 [Compound 49, 2-(4-Nitrophenyl)-N-(oxazol-2-yl)isonicotinamide] | 64 | –
– | – | 2 µg/mL (≈ 6.45 µM) | ≥ 256 µg/mL | O=C(Nc1ncco1)c1ccnc(-c2cccc([N+](=O)[O-])c2)c1 [Compound 50, 2-(3-Nitrophenyl)-N-(oxazol-2-yl)isonicotinamide] | ≥128 | –
– | – | 4 µg/mL (≈ 13.5 µM) | 8 µg/mL (≈ 27.1 µM) | COc1ccc(-c2cc(C(=O)Nc3ncco3)ccn2)cc1 [Compound 51, 2-(4-Methoxyphenyl)-N-(oxazol-2-yl)isonicotinamide] | 2 | –
– | – | 2 µg/mL (≈ 6.19 µM) | 4 µg/mL (≈ 12.4 µM) | CC(C)Oc1ccc(-c2cc(C(=O)Nc3ncco3)ccn2)cc1 [Compound 52, 2-(4-Isopropoxyphenyl)-N-(oxazol-2-yl)isonicotinamide] | 2 | –
– | – | 16 µg/mL (≈ 49.2 µM) | 64 µg/mL (≈ 197 µM) | COc1ccc(-c2cc(C(=O)Nc3ncco3)ccn2)cc1OC [Compound 53, 2-(3,4-Dimethoxyphenyl)-N-(oxazol-2-yl)isonicotinamide] | 4 | –
– | – | 0.5 µg/mL (≈ 1.52 µM) | 1 µg/mL (≈ 3.03 µM) | COc1ccc(-c2cc(C(=O)Nc3ncco3)ccn2)cc1Cl [Compound 54, 2-(3-Chloro-4-methoxyphenyl)-N-(oxazol-2-yl)isonicotinamide] | 2 | –
– | – | 4 µg/mL (≈ 13.8 µM) | 32 µg/mL (≈ 110 µM) | N#Cc1cccc(-c2cc(C(=O)Nc3ncco3)ccn2)c1 [Compound 55, 2-(3-Cyanophenyl)-N-(oxazol-2-yl)isonicotinamide] | 8 | –
– | – | 8 µg/mL (≈ 21 µM) | 8 µg/mL (≈ 21 µM) | CC(C)(C)OC(=O)Nc1ccc(-c2cc(C(=O)Nc3ncco3)ccn2)cc1 [Compound 58, Tert-butyl (4-(4-(oxazol-2-ylcarbamoyl)pyridin-2-yl)phenyl)carbamate] | 1 | –
– | – | 8 µg/mL (≈ 21 µM) | 4 µg/mL (≈ 10.5 µM) | CC(C)(C)OC(=O)Nc1cccc(-c2cc(C(=O)Nc3ncco3)ccn2)c1 [Compound 59, Tert-butyl (3-(4-(oxazol-2-ylcarbamoyl)pyridin-2-yl)phenyl)carbamate] | 0.5 | –
– | – | 8 µg/mL (≈ 30.2 µM) | 8 µg/mL (≈ 30.2 µM) | O=C(Nc1ncco1)c1ccnc(-c2ccccc2)c1 [Compound 60, N-(Oxazol-2-yl)-2-phenylisonicotinamide] | 1 | –
– | – | 4 µg/mL (≈ 12.6 µM) | 16 µg/mL (≈ 50.6 µM) | O=C(Nc1ncco1)c1ccnc(-c2cnc3ccccc3c2)c1 [Compound 61, N-(Oxazol-2-yl)-2-(quinolin-3-yl)isonicotinamide] | 4 | –
– | – | 4 µg/mL (≈ 13.3 µM) | 8 µg/mL (≈ 26.6 µM) | O=C(Nc1ncco1)c1ccnc(OCCC(F)(F)F)c1 [Compound 65, N-(Oxazol-2-yl)-2-(3,3,3-trifluoropropoxy)isonicotinamide] | 2 | –
